Results: publication PMC4155488 (Bioorganic & medicinal chemistry letters, 2014)
Values belong to the molecule of their own block, whether it stands above or below them.

Tests used:
[1] = tested on: hPDE4B; conditions: read-out: IC50 against hPDE4B; reported; cited from earlier work
[2] = biological target: T1, TbrPDEB1 (Trypanosoma brucei, UniProt Q8WQX9); conditions: result in words; cited from earlier work
T1 sequence (Q8WQX9 1-930): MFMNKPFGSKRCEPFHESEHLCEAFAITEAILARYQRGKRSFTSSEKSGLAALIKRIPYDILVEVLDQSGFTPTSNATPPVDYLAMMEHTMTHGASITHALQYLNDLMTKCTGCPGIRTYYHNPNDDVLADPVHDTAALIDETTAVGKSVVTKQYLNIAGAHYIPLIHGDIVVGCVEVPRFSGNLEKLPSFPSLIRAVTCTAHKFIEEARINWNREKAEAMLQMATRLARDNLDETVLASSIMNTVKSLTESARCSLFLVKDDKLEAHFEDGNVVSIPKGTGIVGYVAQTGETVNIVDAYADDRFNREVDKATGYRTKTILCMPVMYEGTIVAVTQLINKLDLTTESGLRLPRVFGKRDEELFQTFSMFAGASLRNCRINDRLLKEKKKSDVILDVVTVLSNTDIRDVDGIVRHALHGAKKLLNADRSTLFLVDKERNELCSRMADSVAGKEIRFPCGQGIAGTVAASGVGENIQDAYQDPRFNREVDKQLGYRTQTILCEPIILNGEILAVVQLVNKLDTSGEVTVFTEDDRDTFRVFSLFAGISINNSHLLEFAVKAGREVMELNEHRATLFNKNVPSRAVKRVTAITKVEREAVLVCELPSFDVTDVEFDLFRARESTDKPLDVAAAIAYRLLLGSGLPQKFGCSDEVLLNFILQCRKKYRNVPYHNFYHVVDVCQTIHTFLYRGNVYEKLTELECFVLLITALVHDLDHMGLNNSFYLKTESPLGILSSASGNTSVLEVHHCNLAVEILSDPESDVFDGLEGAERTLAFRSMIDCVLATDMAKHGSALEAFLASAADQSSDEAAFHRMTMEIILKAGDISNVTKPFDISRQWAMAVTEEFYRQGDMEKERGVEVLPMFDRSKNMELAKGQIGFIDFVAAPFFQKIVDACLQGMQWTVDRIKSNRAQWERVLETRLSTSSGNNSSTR

[3] = biological target: hPDE4; experiment: hPDE4 enzyme inhibition; assay type: biochemical, human; conditions: read-out: IC50 against hPDE4
[4] = biological target: T1, TbrPDEB1; experiment: TbrPDEB1 enzyme inhibition; assay type: biochemical; conditions: for fold loss in potency (TbrPDEB1): relative to 12b (linker of four methylene groups)

fold loss in potency (TbrPDEB1) [4]: ~ 10 fold
SMILES: COc1ccc([C@]2(C#N)CC[C@@H](C(=O)O)CC2)cc1OCCCOc1ccccc1 [Compound 12c]

fold loss in potency (TbrPDEB1) [4]: ~ 10 fold
SMILES: COc1ccc([C@]2(C#N)CC[C@@H](C(=O)O)CC2)cc1OCCCCCOc1ccccc1 [Compound 12d]

The next lines start with the molecule.

SMILES: COc1ccc([C@]2(C#N)CC[C@@H](C(=O)O)CC2)cc1OC1CCCC1 [Compound 1, cilomilast]
IC50 [1]: 0.084 µM

SMILES: O=C(Nc1c(Cl)cncc1Cl)c1ccc(OC(F)F)c(OCC2CC2)c1 [Compound 4, roflumilast]
TbrPDEB1 activity [2]: completely inactive

SMILES: COc1ccc([C@]2(C#N)CC[C@@H](C(=O)O)CC2)cc1OCc1ccccc1 [Compound 7]
IC50 [3]: 0.54 µM

SMILES: COc1ccc([C@]2(C#N)CC[C@@H](C(=O)O)CC2)cc1OCCCCOc1ccccc1 [Compound 12b]
times more active than 1 against TbrPDEB1 ([4]; ratio of TbrPDEB1 IC50 versus compound 1): 17 fold
